Data from PubChem BioAssay (NCI).
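The compound was tested at five concentrations on cells cultured in 96-well plates, with a 48-hour exposure period. TGI: concentration producing complete growth inhibition.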

Assays:
Assay in all cases: DTP human tumour cell line panel, 48 h
HCT-15 colon = test system: HCT-15 colon
SNB-19 CNS = test system: SNB-19 CNS
HS 578T breast = test system: HS 578T breast
SK-MEL-2 melanoma = test system: SK-MEL-2 melanoma
OVCAR-5 ovarian = test system: OVCAR-5 ovarian
LOX IMVI melanoma = test system: LOX IMVI melanoma
NCI/ADR-RES ovarian = test system: NCI/ADR-RES ovarian
SN12C renal = test system: SN12C renal
MOLT-4 leukemia = test system: MOLT-4 leukemia
IGROV1 ovarian = test system: IGROV1 ovarian
MDA-MB-435 = test system: MDA-MB-435
SW-620 colon = test system: SW-620 colon
SNB-75 CNS = test system: SNB-75 CNS
UACC-257 melanoma = test system: UACC-257 melanoma
NCI-H522 lung = test system: NCI-H522 lung
SF-295 CNS = test system: SF-295 CNS
DU-145 prostate = test system: DU-145 prostate
CAKI-1 renal = test system: CAKI-1 renal
COLO 205 colon = test system: COLO 205 colon
T-47D breast = test system: T-47D breast
U251 CNS = test system: U251 CNS
EKVX NSCLC = test system: EKVX NSCLC
MDA-MB-231 breast = test system: MDA-MB-231 breast
SR leukemia = test system: SR leukemia
HCT-116 colon = test system: HCT-116 colon
NCI-H460 lung = test system: NCI-H460 lung
OVCAR-8 ovarian = test system: OVCAR-8 ovarian
HT29 colon = test system: HT29 colon
MDA-N = test system: MDA-N
MCF7 breast = test system: MCF7 breast
A549 NSCLC = test system: A549 NSCLC
786-0 renal = test system: 786-0 renal
M14 melanoma = test system: M14 melanoma
HL-60(TB) leukemia = test system: HL-60(TB) leukemia
RXF 393 renal = test system: RXF 393 renal
PC-3 prostate = test system: PC-3 prostate
K-562 leukemia = test system: K-562 leukemia
BT-549 breast = test system: BT-549 breast
SF-268 CNS = test system: SF-268 CNS
NCI-H23 lung = test system: NCI-H23 lung
HOP-92 NSCLC = test system: HOP-92 NSCLC
UACC-62 melanoma = test system: UACC-62 melanoma
HCC-2998 colon = test system: HCC-2998 colon
OVCAR-3 ovarian = test system: OVCAR-3 ovarian
SK-OV-3 ovarian = test system: SK-OV-3 ovarian
MALME-3M melanoma = test system: MALME-3M melanoma
UO-31 renal = test system: UO-31 renal
ACHN renal = test system: ACHN renal
SF-539 CNS = test system: SF-539 CNS
KM12 colon = test system: KM12 colon
OVCAR-4 ovarian = test system: OVCAR-4 ovarian
TK-10 renal = test system: TK-10 renal
SK-MEL-28 melanoma = test system: SK-MEL-28 melanoma
NCI-H226 lung = test system: NCI-H226 lung
SK-MEL-5 melanoma = test system: SK-MEL-5 melanoma
A498 renal = test system: A498 renal
RPMI-8226 leukemia = test system: RPMI-8226 leukemia
CCRF-CEM leukemia = test system: CCRF-CEM leukemia

Work on `COc1cc(-c2oc3c(OC)c(O)cc(O)c3c(=O)c2OC)ccc1O` yielded a TGI (HCT-15 colon) greater than 100 µM, a TGI (SNB-19 CNS) greater than 100 µM and a TGI (HS 578T breast) of 6.83 µM. It also gave a TGI (SK-MEL-2 melanoma) of 15.3 µM, a TGI (OVCAR-5 ovarian) of 78.7 µM and a TGI (LOX IMVI melanoma) greater than 55.8 µM. It also gave a TGI (NCI/ADR-RES ovarian) greater than 83.5 µM, a TGI (SN12C renal) greater than 100 µM and a TGI (MOLT-4 leukemia) of 29.4 µM. It also gave a TGI (IGROV1 ovarian) of 15.3 µM, a TGI (MDA-MB-435) of 52.3 µM and a TGI (SW-620 colon) greater than 100 µM. The TGI (SNB-75 CNS) was 27.1 µM, the TGI (UACC-257 melanoma) was greater than 94.2 µM and the TGI (NCI-H522 lung) was greater than 37.2 µM. It also gave a TGI (SF-295 CNS) of 76.2 µM, a TGI (DU-145 prostate) greater than 81.5 µM and a TGI (CAKI-1 renal) of 51.5 µM. For the same molecule, the TGI (COLO 205 colon) was greater than 100 µM, the TGI (T-47D breast) was 18.2 µM and the TGI (U251 CNS) was greater than 62.5 µM. It also gave a TGI (EKVX NSCLC) of 72.5 µM, a TGI (MDA-MB-231 breast) greater than 100 µM and a TGI (SR leukemia) greater than 26.7 µM. It also gave a TGI (HCT-116 colon) greater than 100 µM, a TGI (NCI-H460 lung) greater than 93.5 µM and a TGI (OVCAR-8 ovarian) greater than 100 µM. It also gave a TGI (HT29 colon) greater than 100 µM, a TGI (MDA-N) of 59.5 µM and a TGI (MCF7 breast) greater than 75.6 µM. For the same molecule, the TGI (A549 NSCLC) was greater than 100 µM, the TGI (786-0 renal) was greater than 100 µM and the TGI (M14 melanoma) was greater than 31.3 µM. For the same molecule, the TGI (HL-60(TB) leukemia) was greater than 33.3 µM, the TGI (RXF 393 renal) was 51.5 µM and the TGI (PC-3 prostate) was greater than 74.9 µM. It also gave a TGI (K-562 leukemia) greater than 100 µM, a TGI (BT-549 breast) of 59.2 µM and a TGI (SF-268 CNS) greater than 23.3 µM. For the same molecule, the TGI (NCI-H23 lung) was greater than 100 µM, the TGI (HOP-92 NSCLC) was 15.5 µM and the TGI (UACC-62 melanoma) was 24.6 µM. It also gave a TGI (HCC-2998 colon) of 50.4 µM, a TGI (OVCAR-3 ovarian) of 22.3 µM and a TGI (SK-OV-3 ovarian) of 9.15 µM. For the same molecule, the TGI (MALME-3M melanoma) was 97.5 µM, the TGI (UO-31 renal) was 14.8 µM and the TGI (ACHN renal) was greater than 71.5 µM. For the same molecule, the TGI (SF-539 CNS) was greater than 50.2 µM, the TGI (KM12 colon) was greater than 100 µM and the TGI (OVCAR-4 ovarian) was 87.7 µM. For the same molecule, the TGI (TK-10 renal) was 69.6 µM, the TGI (SK-MEL-28 melanoma) was greater than 100 µM and the TGI (NCI-H226 lung) was 97.2 µM. For the same molecule, the TGI (SK-MEL-5 melanoma) was 20.4 µM, the TGI (A498 renal) was 17.2 µM and the TGI (RPMI-8226 leukemia) was 46.3 µM. The TGI (CCRF-CEM leukemia) was 24.9 µM.
